In paper PMC10800708, “Efficacies and ADME properties of redox active methylene blue and phenoxazine analogues for use in new antimalarial triple drug combinations with amino-artemisinins” (Frontiers in Pharmacology, 2024):
Read-outs that look alike come from different tables or passages of the source.

Assays:
[1] = tested on: Plasmodium falciparum NF54; assay: Parasite lactate dehydrogenase (pLDH) assay over 72 h, CQ-sensitive strain; format: cell-based
Procedure: The assay was performed in quadruplicate. The data were analyzed by nonlinear regression analysis using the GraphPad PRISM version 5.00 program to determine the IC50 of each compound.

[2] = Lipophilicity, 1-octanol/phosphate buffer pH 7.4; format: physicochemical; settings: read-out: Lipophilicity LogD7.4
[3] = Plasma stability in pooled human plasma; format: in vitro ADME; settings: for half-life: 37°C
Procedure: . […] The aqueous mobile phase was water with 0.1% formic acid and the organic mobile phase was acetonitrile with 0.1% formic acid. The gradient method has a flow rate of 0.8 mL/min, with a total run time of 2.5 min starting at 5% organic and increasing to 95% at 1.4 min, holding for 40 s before returning to 5% to re-equilibrate the column. • ii. Lipophilicity. Stock solutions (10 mM) of compounds were diluted to 100 μM in 96-well deep-well plate containing 300 µL of 1-octanol and 300 µL of phosphate buffer at pH 7.4. The plate was agitated on an orbital shaker at 750 rpm for 2 h. The organic and buffer layers of each well were transferred separately to a new analysis plate. The samples were analysed with the HPLC diode array detection as described for kinetic solubility. Samples from both layers were analysed to determine LogD7.4 values. • iii. Passive permeability. A parallel artificial membrane permeation assay (PAMPA) was used to assess the passive permeability of compounds with a 96-well MultiScreen filter plate ([…] pore size, Millipore). The filter plate was precoated with 5% hexadecane in hexane. Stock solutions of compounds were diluted to 1 mM in a donor buffer (pH 6.5). Lucifer yellow was added to the apical wells of the precoated MultiScreen plate containing compound donor solution. The donor buffer solutions were spiked with each test compound (1 mM). The acceptor-buffer solution was prepared by adding 10 μL DMSO to 990 μL acceptor buffer (pH 7.4) and 250 μL were added to the basolateral (acceptor) wells. The donor plate was carefully inserted into the acceptor plate and incubated at room temperature for 4 h. After the incubation period, 50 μL of samples from the acceptor plate were transferred to a round bottom 96-well plate, together with 30 μL of donor buffer for matrix matching. Theoretical equilibrium samples for each test compound were prepared by adding 150 μL of donor solutions to 250 μL acceptor solutions and left at room temperature. These theoretical equilibrium samples represent complete transfer of the compound into the donor well. For the theoretical equilibrium samples, 80 μL were added to the analysis plate. Lastly, 160 μL of the internal standard carbamazepine (0.1 μM) was added to all acceptor and equilibrium samples. A portion of the sample containing Lucifer yellow was analyzed on a BioRad iMarkTM Microplate Absorbance Reader (BioRad, Hercules, CA, United States; […]. Samples were analysed using reverse phase Gemini NX-C18 column (5 μm, 2.1 mm × 50 mm) with a Shimadzu HPLC coupled with an AB Sciex 3200 Q TRAP MS). […]. Plasma stability. Stock solutions of compounds in DMSO (10 mM) were used to spike pooled human plasma. […]
. Plasma protein binding was determined in pooled human plasma using an ultracentrifugation method. […]

[4] = Metabolic stability in mouse liver microsomes; format: in vitro ADME
Procedure: Eq. 4 Predicted t1/2 t1/2=−0.693/λ (4) Where λ is the slope of the Ln % parent remaining vs. time curve. • v. Plasma protein binding. Plasma protein binding was determined in pooled human plasma using an ultracentrifugation method. Stock solutions of test compounds (10 mM) were diluted in phosphate buffer and spiked into plasma in deep well 96-well plates (10 µM). An aliquot of each compound was immediately precipitated with ice cold acetonitrile containing the internal standard carbamazepine (0.1 μM). These served as total concentration samples. After incubation in a water bath at 37°C for 1 h, the samples were transferred to ultracentrifuge tubes in duplicate and centrifuged for 4 h at 37°C and 30,000 g (Optima L-80XP, Beckman). Following centrifugation, the supernatant was transferred to the plate containing the total concentration samples and precipitated with ice cold acetonitrile containing the internal standard. Analyte concentrations of all compounds were determined via LC-MS/MS (reverse phase Gemini NX-C18 column and Shimadzu HPLC coupled with an AB Sciex 3200 Q TRAP MS) as described above. • vi. Metabolic stability. A 5-point metabolic stability assay in human and mouse liver microsomes were performed in duplicate in 96-well plates. […] The cofactor NADPH was added, and the reactions were subsequently stopped at time points 5, 10, 30 and 60 min by removal of an aliquot and quenching with ice cold acetonitrile containing the internal standard. The supernatant of all samples was analysed via LC-MS/MS analysis (reverse phase Gemini NX-C18 column and Shimadzu HPLC and AB Sciex 3200 Q TRAP MS) as described above.

[5] = Plasma protein binding, ultracentrifugation; format: in vitro ADME; settings: pooled human plasma
[6] = CQ-sensitive NF54, pLDH 72 h, n = 3, read-out: Plasmodium falciparum IC50 NF54
[7] = P. falciparum NF54, read-out: NF54 IC50 (dotted line in concentration-time figures)

SMILES	IC50 [1, 6] [nM]	IC50 [1, 7] [nM]	logD at 2 h [2]	half-life [3] [h]	Parent remaining in plasma after 3 h ([3]; 3 h) [%]	CLint scaled [4] [mL/min/kg]	fraction unbound at 1 h, 10 µM [5]
CCN(CC)c1ccc2nc3ccc(=[N+](CC)CC)cc-3sc2c1 [AD01]	23.1 ± 2.5	23	0.2	1.42	21	80.6	
CCN(CC)c1ccc2nc3c4ccccc4/c(=N\c4ccccn4)cc-3oc2c1 [PhX6]	41.8 ± 0.04	41	1	> 2.5		88.2	0.1
